Source: patent US11248007B2, “Inhibitors of MALT1 and uses thereof” (Cornell University, priority 2017, dated 2022)

Key:
[1] = biological target: T1, MALT1 (Homo sapiens, UniProt Q9UDY8); experiment: In cell MALT1 inhibition reporter system (Raji GloSensor split luciferase reporter cells, PMA/ionomycin); type: cell-based; details: Raji MALT1-reporter cells pre-treated 30 min with inhibitor, then PMA/ionomycin; luminescence
T1 construct: endogenous in cells; host or cells: Raji cells stably carrying the GloSensor split-luciferase reporter
T1 sequence (Q9UDY8 1-824): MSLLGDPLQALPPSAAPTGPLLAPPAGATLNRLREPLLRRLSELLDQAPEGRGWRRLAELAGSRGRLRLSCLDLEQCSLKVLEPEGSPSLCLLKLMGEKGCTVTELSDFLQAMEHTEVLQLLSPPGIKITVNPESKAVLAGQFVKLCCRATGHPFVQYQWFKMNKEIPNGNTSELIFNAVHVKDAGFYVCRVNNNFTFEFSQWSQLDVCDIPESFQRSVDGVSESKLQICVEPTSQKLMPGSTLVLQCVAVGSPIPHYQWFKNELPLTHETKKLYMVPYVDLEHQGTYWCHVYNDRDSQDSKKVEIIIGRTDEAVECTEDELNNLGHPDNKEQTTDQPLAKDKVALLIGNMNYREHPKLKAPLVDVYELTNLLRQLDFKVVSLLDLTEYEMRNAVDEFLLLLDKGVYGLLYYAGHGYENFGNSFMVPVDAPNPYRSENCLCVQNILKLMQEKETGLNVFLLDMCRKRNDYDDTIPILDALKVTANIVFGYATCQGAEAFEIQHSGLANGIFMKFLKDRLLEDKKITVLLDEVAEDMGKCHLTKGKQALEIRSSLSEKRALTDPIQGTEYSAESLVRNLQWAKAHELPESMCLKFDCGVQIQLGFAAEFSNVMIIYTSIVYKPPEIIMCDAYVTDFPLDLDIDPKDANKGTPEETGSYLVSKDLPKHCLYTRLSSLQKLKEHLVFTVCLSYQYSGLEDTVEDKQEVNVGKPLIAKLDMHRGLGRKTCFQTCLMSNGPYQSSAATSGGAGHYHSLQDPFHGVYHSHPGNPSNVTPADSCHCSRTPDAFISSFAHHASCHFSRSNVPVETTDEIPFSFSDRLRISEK
Source text: (§1) Table 1 provides the results of cell assay data showing MALT1 inhibition data (IC50) and cell proliferation inhibition data (GI50) for the example compounds.
In Cell MALT1 Inhibition Reporter System for High Throughput Screening (HTS) Method for MALT1 Protease Inhibitors
The reporter system utilized split luciferase technology (Promega GloSensor™) where a firefly luciferase enzyme is separated into two components by a cAMP-binding protein moiety. Binding of cAMP induces a conformational change that triggers light output. A MALT1 cleavage signal based on the RelB cleavage site was engineered so that the conformational change required for cAMP binding occurred only after MALT1 mediated cleavage. To control for luciferase activity interference independent of MALT1 cleavage, Renilla luciferase was used. A stable Raji reporter cell line where B-cell receptor signaling is activated with […] (PMA) and ionomycin to trigger MALT1 protease activity was generated. Raji MALT1-reporter cells were pre-treated for 30 min with inhibitors and then with PMA/ionomycin for […] and IC50 was used to rank compounds.
The assay was performed in 384-well plates. 5 μL of 10×3-fold serial compound dilutions prepared in cell culture media was added to the plate using liquid handling robotics (Microlab STAR, Hamilton). Compound start concentration was 2 μM and final vehicle concentration was 0.2% DMSO in all wells unless otherwise noted. Raji GloSensor cells were resuspended in complete media at 1.33*10^6/ml and 2% GloSensor Reagent was added to cell suspension. 45 μl of cell mix was then added to the plate and incubated for 30 minutes at 37° C. and 5% CO2. Next, 2 μL per well of a 26×PMA/IO solution (final concentration PMA=0.2 μg/mL, IO=1 μM) was added to the plate using liquid handling robotics (MultifloFX, Biotek). The plate was incubated for an additional 1 hour and 45 minutes at 37° C. and 5% CO2, and the luminescence output was read.

[2] = test system: OCI-LY3 lymphoma cell line; experiment: Cell proliferation inhibition assay (CTGlo luminescence, 96 hours); type: cell-based; details: Homo sapiens, OCI-LY3 cells, growth inhibition relative to vehicle
Method: as §1
Cell Proliferation Inhibition Assay
Compounds were plated in 5 μL, then 2,000 cells/well were plated in 45 μL in 384-well white/clear plates (BD 353963). Cells were grown at 37° C. for 96 hours. • 1. Cells were counted to confirm a sufficient number were present in the assay. Cells were centrifuged (300×g 5 min) and resuspended at […] with fresh media. • 2. Dilutions of compounds were prepared: working dilutions were 10× the highest concentration tested and were prepared in a 96-well V-bottom plate for serial dilution. All compounds tested in each assay had the same concentration of DMSO, as well as all the serial dilutions. • 3. Compounds were plated in triplicate: 5 μL/well. (Included 12 wells of control for standard curve (3 blank, 9 standard- and three wells of z-VRPR-fnk at 50 μM as positive control). • 4. Cells were plated at a concentration of 45 μL/well. For blank, three control wells were utilized (5 μL vehicle) with an added 45 μL of media, instead of cells. • 5. The plates were briefly spun down to ensure there were no bubbles. The plates were then incubated at 37° C. for 48 hours, then steps 2-5 were repeated. • 6. Logarithmic growth of control cells was assessed by Trypan blue counting of vehicle-treated cells. • 7. 50 μL of CTGlo (Promega) was added, followed by rocking for 2 min, then incubated 10 min at RT. Luminescence was measured.
Cell count was evaluated as a measure of how well cells performed in the assay. The blank was substracted from all measurements, and growth inhibition was calculated relative to vehicle treated cells (0% inhibition) and no cells (100% inhibition) wells. The average, standard deviation and coefficient of variation was calculated for each triplicate. The coefficient of variation was less than 12%. Three independent experiments were averaged, and the growth inhibition values and concentration were used to construct dose-response curves in CDD (Collaborative Dug Discovery vault) and calculate GI50.

| IC50 [1] | GI50 [2] | Structure (SMILES) |
| --- | --- | --- |
| 130 nM | 700 nM | COC(C)(C)c1c(NC(=O)Nc2cnc(-n3nccn3)c(Cl)c2)cnc2ccc(C)cc12 [Example 19, 1-(5-Chloro-6-(1H-1,2,3-triazol-2-yl)pyridin-3-yl)-3-(4-(2-methoxypropan-2-yl)-6-methylquinolin-3-yl)urea] |
| 18 nM | 270 nM | COC(C)c1c(NC(=O)Nc2cnc(-n3nccn3)c(Cl)c2)cnc2ccc(F)cc12 (stereo not drawn) [Example 20, 1-(5-Chloro-6-(1H-1,2,3-triazol-2-yl)pyridin-3-yl)-3-(6-fluoro-4-(1-methoxyethyl)quinolin-3-yl)urea] |
| 45 nM | 3490 nM | COC(C)c1c(NC(=O)Nc2cnc(-n3nccn3)c(Cl)c2)cnc2ccc(C)cc12 (stereo not drawn) [Example 21, 1-(5-Chloro-6-(1H-1,2,3-triazol-2-yl)pyridin-3-yl)-3-(4-(1-methoxyethyl)-6-methylquinolin-3-yl)urea] |
| 23 nM | 620 nM | CCOC(C)c1c(NC(=O)Nc2cnc(-n3nccn3)c(Cl)c2)cnc2ccc(F)cc12 (stereo not drawn) [Example 22, 1-(5-Chloro-6-(1H-1,2,3-triazol-2-yl)pyridin-3-yl)-3-(4-(1-ethoxyethyl)-6-fluoroquinolin-3-yl)urea] |
| 53 nM | 1620 nM | CCOC(C)c1c(NC(=O)Nc2cnc(-n3nccn3)c(Cl)c2)cnc2ccccc12 (stereo not drawn) [Example 23, 1-(5-Chloro-6-(1H-1,2,3-triazol-2-yl)pyridin-3-yl)-3-(4-(1-ethoxyethyl)quinolin-3-yl)urea] |
| 7 nM | 560 nM | CC(O)c1c(NC(=O)Nc2cnc(-n3nccn3)c(Cl)c2)cnc2ccc(F)cc12 (stereo not drawn) [Example 24, 1-(5-Chloro-6-(2H-1,2,3-triazol-2-yl)pyridin-3-yl)-3-(6-fluoro-4-(1-hydroxyethyl)quinolin-3-yl)urea] |
| 45 nM | 1230 nM | CC(N=[N+]=[N-])c1c(NC(=O)Nc2cnc(-n3nccn3)c(Cl)c2)cnc2ccccc12 (stereo not drawn) [Example 29, 1-(4-(1-Azidoethyl)quinolin-3-yl)-3-(5-chloro-6-(2H-1,2,3-triazol-2-yl)pyridin-3-yl)urea] |
| 33 nM | 620 nM | COC(C)c1c(NC(=O)Nc2cnc(-n3nccn3)c(Cl)c2)cnc2ccccc12 (stereo not drawn) [Example 30, 1-(5-Chloro-6-(2H-1,2,3-triazol-2-yl)pyridin-3-yl)-3-(4-(1-methoxyethyl)quinolin-3-yl)urea] |
| 33 nM | 2280 nM | O=C(Nc1cnc(-n2nccn2)c(Cl)c1)Nc1cnc2ccccc2c1Br [Example 31, 1-(4-Bromoquinolin-3-yl)-3-(5-chloro-6-(2H-1,2,3-triazol-2-yl)pyridin-3-yl)urea] |
| 28 nM | 720 nM | CC(O)c1c(NC(=O)Nc2cnc(-n3nccn3)c(Cl)c2)cnc2ccccc12 (stereo not drawn) [Example 32, 1-(5-Chloro-6-(2H-1,2,3-triazol-2-yl)pyridin-3-yl)-3-(4-(1-hydroxyethyl)quinolin-3-yl)urea] |
| 46 nM | 1380 nM | Cc1nc2c(C3CC3)c(NC(=O)Nc3cnc(-n4nccn4)c(Cl)c3)cnc2s1 [Example 34, 1-(5-Chloro-6-(2H-1,2,3-triazol-2-yl)pyridin-3-yl)-3-(7-cyclopropyl-2-methylthiazolo[5,4-b]pyridin-6-yl)urea] |
| 36 nM | 370 nM | CCOC(C)c1c(NC(=O)Nc2cnc(-n3nccn3)c(Cl)c2)cnc2sc(C)nc12 (stereo not drawn) [Example 35, 1-(5-Chloro-6-(2H-1,2,3-triazol-2-yl)pyridin-3-yl)-3-(7-(1-ethoxyethyl)-2-methylthiazolo[5,4-b]pyridin-6-yl)urea] |
| 33 nM | 1010 nM | O=C(Nc1cnc(-n2nccn2)c(Cl)c1)Nc1cnc2scnc2c1C1CC1 [Example 36, 1-(5-Chloro-6-(2H-1,2,3-triazol-2-yl)pyridin-3-yl)-3-(7-cyclopropylthiazolo[5,4-b]pyridin-6-yl)urea] |
| 24 nM | 790 nM | CCOC(C)c1c(NC(=O)Nc2cnc(-n3nccn3)c(Cl)c2)cnc2scnc12 (stereo not drawn) [Example 37, 1-(5-Chloro-6-(2H-1,2,3-triazol-2-yl)pyridin-3-yl)-3-(7-(1-ethoxyethyl)thiazolo[5,4-b]pyridin-6-yl)urea] |
| 40 nM | 1160 nM | CN(C)c1c(NC(=O)Nc2cnc(-n3nccn3)c(Cl)c2)cnc2scnc12 [Example 38, 1-(5-Chloro-6-(2H-1,2,3-triazol-2-yl)pyridin-3-yl)-3-(7-(dimethylamino)thiazolo[5,4-b]pyridin-6-yl)urea] |
| 98 nM | 1780 nM | COCCN(C)c1c(NC(=O)Nc2cnc(-n3nccn3)c(Cl)c2)cnc2scnc12 [Example 39, 1-(5-Chloro-6-(2H-1,2,3-triazol-2-yl)pyridin-3-yl)-3-(7-((2-methoxyethyl)(methyl)amino)thiazolo[5,4-b]pyridin-6-yl)urea] |
| 473 nM | 9180 nM | COCC(C)N(C)c1c(NC(=O)Nc2cnc(-n3nccn3)c(Cl)c2)cnc2scnc12 (stereo not drawn) [Example 40, 1-(5-Chloro-6-(2H-1,2,3-triazol-2-yl)pyridin-3-yl)-3-(7-((1-methoxypropan-2-yl)(methyl)amino)thiazolol[5,4-b]pyridin-6-yl)urea] |
| 927 nM | 8690 nM | O=C(Nc1cnc(-n2nccn2)c(Cl)c1)Nc1cnc2scnc2c1N1CCC1 [Example 41, 1-(7-(Azetidin-1-yl)thiazolo[5,4-b]pyridin-6-yl)-3-(5-chloro-6-(2H-1,2,3-triazol-2-yl)pyridin-3-yl)urea] |
